Each structure is given as a SMILES string.

What all share (assay type): cell-based, human
Experiment [1] deals with VWF expression level in hPSC-EC. In words: VWF expression level in hPSC-EC by immunofluorescence. As for the experimental part:
(§1) Cells were fixed with 4% paraformaldehyde in 1×PBS for 15 minutes and subsequently washed three times with 1×PBS. For immunofluorescence, fixed samples were blocked with 5% donkey serum plus 0.1% Triton X-100 in 1×PBS, incubated overnight in 3% bovine serum albumin (BSA) (Sigma Aldrich)+1×PBS with primary antibodies, washed, incubated with secondary antibodies, washed and imaged. Primary antibodies included antibodies for VWF (Agilent Technologies; A008202), β-Actin (Cell Signaling Technology; 4970); DAPI (Cayman Chemical Company; 14285), Angiopoietin 2 (R&D Systems; AF623), CD31 (BD Biosciences; 555444), CD144 (BD Biosciences; 555661), and Notch1 (Cell Signaling Technology; 3608S). Fluorescence labeled antibodies included anti-rabbit IgG secondary antibody Alexa Fluor 488 (Thermo Fisher Scientific; A32731), anti-mouse IgG secondary antibody Alexa Fluor 555 (Thermo Fisher Scientific; A21422), and FITC anti-VWF antibody (Abcam; ab8822). To compare different experimental conditions, images were collected at identical microscopy setup using wide field or confocal fluorescence microscope. […]
hPSC-EC were treated with blood plasma or compounds to test their effects on VWF expression level in cells. […] Due to the high fluorescence background in 40% and 80% plasma treated cells, we only used less than 40% plasma to treat cells for immunofluorescence imaging. […]

The test system is the same in experiment [2]. Description: VWF and CD144 protein in hPSC-EC by immunoblot. As to the method:
Whole cells lysate was extracted using 1× RIPA lysis and extraction buffer (Thermo Fisher Scientific) supplemented with 1× protease inhibitor cocktail (Sigma Aldrich) and 1 μL Benzonase nuclease (Sigma Aldrich) per sample. Each sample was supplied with 100 mM DTT (Sigma Aldrich) and 1× Laemmli sample buffer (Bio-Rad) and heated at 95° C. for 5 minutes. The primary antibodies above were added to samples and followed by anti-rabbit or anti-mouse IgG secondary antibody conjugated with HRP (Thermo Fisher Scientific; 31460 or 31430). Immunoblots were imaged in the presence of Pierce ECL Western Blotting substrate (Thermo Fisher Scientific) and quantified using Fiji software.
Ten compounds were added separately to hPSC culture medium on day 6 of the cell differentiation and maintained in the media thereafter. The untreated cell culture medium was EGM with additional 20 ng/ml VEGF, 20 ng/ml FGF, and 1 μM Chir99021. Based on untreated cell culture medium, we tested the following additional concentrations of compounds: VEGF (30, 70, 120 ng/ml, Peprotech 100-20), FGF (30, 70, 120 ng/ml, PeproTech 100-18B), human transforming growth factor β1 (TGFβ1, 1, 3, 10 ng/ml, R&D Systems 240-B), lipopolysaccharide (LPS, 1, 3, 10 ng/ml, Santa Cruz sc-3535), human interferon gamma (IFN, 1, 3, 10 ng/ml, Peprotech 300-02), human noggin (1, 3, 10 ng/ml, Peprotech, 120-10C), Chir99021 (1, 3, 10 µM, Reprocell 04-0004-10), Smoothened agonist (SAG, 1, 3, 10 μM, Cayman Chemical 11914), BMP4 (1, 3, 10, 50 ng/ml, R&D Systems 314-BP), or DAPT (1, 3, 10 µM, Tocris 2634). Concentrations of these compounds that were likely to be safe and efficacious were used based on the literature and previous experience. To treat HUVEC with DAPT (Tocris 2634), 0/10/30 μM DAPT was added to the cell culture medium EGM on day 2 after cell passaging and maintained in the media thereafter. The cell culture medium with corresponding compound was changed every two days until cell fixation or cell lysis experiment on day 10-14 for hSPC-EC or day 7-9 for HUVEC.
A general note: Immunoblotting shows a protein as a band on a membrane.

Experiment [3] deals with VWF level in HUVEC. Description: VWF level in HUVEC treated with DAPT (immunofluorescence and immunoblot). As to the method: Cells were fixed with 4% paraformaldehyde in 1×PBS for 15 minutes and subsequently washed three times with 1×PBS. For immunofluorescence, fixed samples were blocked with 5% donkey serum plus 0.1% Triton X-100 in 1×PBS, incubated overnight in 3% bovine serum albumin (BSA) (Sigma Aldrich)+1×PBS with primary antibodies, washed, incubated with secondary antibodies, washed and imaged. Primary antibodies included antibodies for VWF (Agilent Technologies; A008202), β-Actin (Cell Signaling Technology; 4970); DAPI (Cayman Chemical Company; 14285), Angiopoietin 2 (R&D Systems; AF623), CD31 (BD Biosciences; 555444), CD144 (BD Biosciences; 555661), and Notch1 (Cell Signaling Technology; 3608S). Fluorescence labeled antibodies included anti-rabbit IgG secondary antibody Alexa Fluor 488 (Thermo Fisher Scientific; A32731), anti-mouse IgG secondary antibody Alexa Fluor 555 (Thermo Fisher Scientific; A21422), and FITC anti-VWF antibody (Abcam; ab8822). To compare different experimental conditions, images were collected at identical microscopy setup using wide field or confocal fluorescence microscope. Image analysis was performed using Fiji software.
Whole cells lysate was extracted using 1× RIPA lysis and extraction buffer (Thermo Fisher Scientific) supplemented with 1× protease inhibitor cocktail (Sigma Aldrich) and 1 μL Benzonase nuclease (Sigma Aldrich) per sample. […]

Experiment [4] relates to VWF at the hPSC-EC surface. In words: VWF string formation assay under flow after PMA stimulation. The following applies: 3 μM DAPT from day 6; 100 ng/mL PMA 20 min, flow 2.5 dyn/cm^2 5 min. As to the method:
The hPSC-EC from day 5 of cell differentiation were seeded in a flow chamber (ibidi GmbH, μ-slide VI 0.4, 17×3.8×0.4 mm) precoated with 2.5 mg/mL collagen (Corning, Rate Tail Collagen Type I). Cells were fed by EGM endothelial cell growth medium+20 ng/ml recombinant human VEGF165+20 ng/mL recombinant human FGF-basic+1 μM Chir-99021 until day 12 of cell differentiation. The flow chamber was washed by 100 μl EBM endothelial cell growth basal medium (Lonza) twice. Cells were stimulated in EBM medium with 100 ng/mL PMA at stasis at 37° C. and 5% CO2 for 20 minutes and then followed by flow (2.5 dyn/cm^2 wall shear stress) using a syringe pump for 5 minutes. After flow stopped, the flow chamber was blocked by 6% BSA (Sigma Aldrich) in EBM medium for 10 minutes. […] Cells were washed by EBM medium for three times and imaged under Olympus wide field fluorescence microscope. […]
VWF forms strings on HUVEC surface upon stimulation by agonists such as phorbol 12-myristate 13-acetate (PMA) (FIG. 10A). […] The effect of enhancing VWF level on VWF string formation was then evaluated. hPSC-EC were transferred into a microfluidic channel on day 5 of differentiation and treated with 3 μM DAPT from day 6 onwards. […] VWF attached to the EC surface was detected live by FITC-labeled anti-VWF antibody, which was introduced under flow. […]

Experiment [5] has as its system hPSC-EC. Description: hPSC-EC maturation: cell size and CD144 junction morphology. The following applies: 0 or 3 μM DAPT. As to the method:
as §1
hPSC-EC were treated with blood plasma or compounds to test their effects on VWF expression level in cells. […] Due to the high fluorescence background in 40% and 80% plasma treated cells, we only used less than 40% plasma to treat cells for immunofluorescence imaging.

In the case of `C[C@H](NC(=O)Cc1cc(F)cc(F)c1)C(=O)N[C@H](C(=O)OC(C)(C)C)c1ccccc1` [DAPT], in experiment [1] (added day 6 of differentiation, DAPT 1 μM), the “Levels of VWF by immunofluorescence in screen of ten compounds” value is recorded as “substantially increased levels of VWF”. The “Increase of VWF fluorescence intensity vs untreated control, repeated trials” value in experiment [1] (final concentration of 1 μM DAPT) was “approximately two-fold”. In experiment [2] (DAPT-treated hPSC-EC), the “CD144 marker for EC” value is on record as “does not affect CD144” and the “VWF protein by immunoblot” value is listed as “confirmed the increase in VWF protein”. In addition, the “DAPT final concentration at which VWF protein peaks (immunoblot)” value in experiment [2] (hPSC-EC, DAPT 1, 3, 10 μM) is about 3 µM. Further, the “VWF level in HUVEC by immunofluorescence and immunoblot” value in experiment [3] (0/10/30 μM DAPT) is on record as “enhanced VWF level with increased DAPT concentrations”. For the same compound, the “VWF increase compared to untreated controls” value in experiment [3] (HUVEC, 10 μM DAPT) is about 1.7 times. In experiment [4], the “VWF attached to the EC surface of control hPSC-EC” value is recorded as “numerous foci of VWF at the cell surface” and the VWF string formation result is recorded as “formed strings attached to the EC surface”. Also, the “Changes in hPSC-EC size or junctional morphology” value in experiment [5] was “did not induce the changes”.
